# Experimental data reported in patent US6951647B2, “T cell binding ligand peptides and method of inducing a cellular immune response” (Cel-Sci Corporation, priority 2001, dated 2005).
# Where no end group is shown, it is not given here.
# Conditions: saline (0.15 M NaCl, pH 7.4) or WFI, 0.5-2.0 mg/ml; 2-8, 18-25 or 40 °C; pH 7.4 to 4.5; HPLC
# Protocol: The long range stability of the peptide constructs formed using Peptide G, was carried out with the construct dissolved in saline (0.15 M NaCl, pH 7.4) or in water for injection (WFI) at a concentration of 0.5-2.0 mg/ml and stored frozen soon after preparation.
sequence,measurement,value
DGQEEKAGVVSTGLI [Peptide G′],Long range stability (deamination) of peptide constructs,overcomes the long range stabilization problem of the peptide conjugates
